From paper PMC3264577, “RINL, Guanine Nucleotide Exchange Factor Rab5-Subfamily, Is Involved in the EphA8-Degradation Pathway with Odin” (PLoS ONE, 2012)

Assays:
[1] = biological target: T1, Rab5b (Homo sapiens, UniProt P61020); assay: […] metabolic labelling, anti-myc immunoprecipitation, TLC of bound nucleotides; assay type: cell-based; settings: HEK293T cells, 4 h 32Pi; mock or GEF co-expression; labelled compound
T1 construct: GST fusion from E. coli (in vitro); myc-tagged in HEK293T (cell assay)
T1 sequence (P61020 1-215): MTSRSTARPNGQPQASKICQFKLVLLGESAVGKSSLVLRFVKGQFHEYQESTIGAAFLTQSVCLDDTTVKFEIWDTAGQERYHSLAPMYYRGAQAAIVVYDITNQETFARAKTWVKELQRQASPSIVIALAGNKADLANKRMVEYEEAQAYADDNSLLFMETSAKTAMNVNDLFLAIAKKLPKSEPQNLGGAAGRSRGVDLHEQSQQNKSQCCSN

[2] = biological target: T2, Rab3a (Homo sapiens, UniProt P20336); assay: as above; assay type: cell-based; settings: HEK293T cells, mock or RINL co-expression, labelled compound
T2 construct: myc-tagged, expressed in HEK293T, immunoprecipitated
T2 sequence (P20336 1-220): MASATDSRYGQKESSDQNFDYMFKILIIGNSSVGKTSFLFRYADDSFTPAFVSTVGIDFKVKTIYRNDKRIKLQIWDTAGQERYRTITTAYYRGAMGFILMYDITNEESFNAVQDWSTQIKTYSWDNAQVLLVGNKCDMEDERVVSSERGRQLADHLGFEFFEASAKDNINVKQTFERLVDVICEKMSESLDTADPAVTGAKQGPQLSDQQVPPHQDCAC

[3] = biological target: T3, Rab31 (Homo sapiens, UniProt Q13636); assay: as above; assay type: cell-based; parameters: myc-tagged in HEK293T (cell assay); settings: HEK293T cells, 4 h 32Pi; mock or GEF co-expression; labelled compound
T3 sequence (Q13636 1-195): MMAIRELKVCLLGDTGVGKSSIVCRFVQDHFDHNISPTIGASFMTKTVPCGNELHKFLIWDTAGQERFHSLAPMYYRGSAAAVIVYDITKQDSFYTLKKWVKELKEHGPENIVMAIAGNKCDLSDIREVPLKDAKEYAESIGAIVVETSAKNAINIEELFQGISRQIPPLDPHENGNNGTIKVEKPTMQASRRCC

[4] = biological target: T4, Rab22 (Homo sapiens, UniProt Q9UL26); assay: as above; assay type: cell-based; parameters: gene RAB22A; myc-tagged in HEK293T (cell assay); settings: HEK293T cells, 4 h 32Pi; mock or GEF co-expression; labelled compound
T4 sequence (Q9UL26 1-194): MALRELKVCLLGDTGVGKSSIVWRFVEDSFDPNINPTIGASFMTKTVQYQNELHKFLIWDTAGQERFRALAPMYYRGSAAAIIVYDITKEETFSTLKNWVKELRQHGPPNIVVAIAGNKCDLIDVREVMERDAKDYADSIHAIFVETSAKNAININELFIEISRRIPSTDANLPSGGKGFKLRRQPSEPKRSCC

[5] = biological target: T5, Rab21 (Homo sapiens, UniProt Q9UL25); assay: as above; assay type: cell-based; parameters: myc-tagged in HEK293T (cell assay); settings: HEK293T cells, 4 h 32Pi; mock or GEF co-expression; labelled compound
T5 sequence (Q9UL25 1-225 limits assumed): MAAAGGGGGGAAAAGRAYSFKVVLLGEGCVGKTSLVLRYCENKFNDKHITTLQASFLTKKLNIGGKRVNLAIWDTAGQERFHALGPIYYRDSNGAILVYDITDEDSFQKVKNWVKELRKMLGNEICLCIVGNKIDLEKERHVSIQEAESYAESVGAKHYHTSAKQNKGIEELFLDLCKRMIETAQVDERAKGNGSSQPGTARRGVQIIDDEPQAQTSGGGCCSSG

[6] = biological target: T6, Rab11a (Homo sapiens, UniProt P62491); assay: as above; assay type: cell-based; settings: HEK293T cells, mock or RINL co-expression, labelled compound
T6 construct: myc-tagged, expressed in HEK293T, immunoprecipitated
T6 sequence (P62491 2-213): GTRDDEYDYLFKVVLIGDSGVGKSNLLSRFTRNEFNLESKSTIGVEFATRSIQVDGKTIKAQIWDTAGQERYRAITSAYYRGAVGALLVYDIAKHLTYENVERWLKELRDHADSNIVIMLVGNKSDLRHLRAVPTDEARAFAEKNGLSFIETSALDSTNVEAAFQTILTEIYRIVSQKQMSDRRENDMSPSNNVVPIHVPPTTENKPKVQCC

[7] = biological target: T7, Rab7a (Homo sapiens, UniProt P51149); assay: as above; assay type: cell-based; settings: HEK293T cells, mock or RINL co-expression, labelled compound
T7 construct: myc-tagged, expressed in HEK293T, immunoprecipitated
T7 sequence (P51149 2-207): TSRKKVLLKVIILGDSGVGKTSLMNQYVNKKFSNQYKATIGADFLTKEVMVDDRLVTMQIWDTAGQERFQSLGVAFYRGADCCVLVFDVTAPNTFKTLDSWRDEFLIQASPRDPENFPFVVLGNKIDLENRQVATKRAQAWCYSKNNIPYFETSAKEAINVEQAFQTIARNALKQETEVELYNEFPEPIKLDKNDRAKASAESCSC

[8] = biological target: T3, Rab31; assay: […]GTPgammaS filter binding time course; parameters: GST fusion from E. coli (in vitro); myc-tagged in HEK293T (cell assay); settings: 1 µM [35S]GTPgammaS, 30 °C; with or without FLAG-RINL or Rabex-5; labelled compound
[9] = biological target: T5, Rab21; assay: […]GTPgammaS filter binding time course; parameters: GST fusion from E. coli (in vitro); myc-tagged in HEK293T (cell assay); settings: 1 µM [35S]GTPgammaS, 30 °C; with or without FLAG-RINL or Rabex-5; labelled compound
[10] = biological target: T4, Rab22; assay: […]GTPgammaS filter binding time course; parameters: gene RAB22A; GST fusion from E. coli (in vitro); myc-tagged in HEK293T (cell assay); settings: 1 µM [35S]GTPgammaS, 30 °C; with or without FLAG-RINL or Rabex-5; labelled compound
[11] = biological target: the molecule itself; assay: not stated; data not shown; tetramers composed of anti-parallel linkages of two parallel dimers

Nc1nc2c(ncn2[C@@H]2O[C@H](COP(=O)(O)OP(=O)(O)O)[C@@H](O)[C@H]2O)c(=O)[nH]1 [GDP]
32Pi metabolic labelling, anti-myc immunoprecipitation, TLC of bound nucleotides [1]: The radioactivity of GTP and GDP was quantified
32Pi metabolic labelling, anti-myc immunoprecipitation, TLC of bound nucleotides [2]: The radioactivity of GTP and GDP was quantified
32Pi metabolic labelling, anti-myc immunoprecipitation, TLC of bound nucleotides [3]: The radioactivity of GTP and GDP was quantified
32Pi metabolic labelling, anti-myc immunoprecipitation, TLC of bound nucleotides [4]: The radioactivity of GTP and GDP was quantified
32Pi metabolic labelling, anti-myc immunoprecipitation, TLC of bound nucleotides [5]: The radioactivity of GTP and GDP was quantified
32Pi metabolic labelling, anti-myc immunoprecipitation, TLC of bound nucleotides [6]: The radioactivity of GTP and GDP was quantified
32Pi metabolic labelling, anti-myc immunoprecipitation, TLC of bound nucleotides [7]: The radioactivity of GTP and GDP was quantified

Nc1nc2c(ncn2[C@@H]2O[C@H](COP(=O)(O)OP(=O)(O)OP(=O)(O)O)[C@@H](O)[C@H]2O)c(=O)[nH]1 [GTP]
32Pi metabolic labelling, anti-myc immunoprecipitation, TLC of bound nucleotides [1]: Rab5b was present in a GTP-bound form in mock-transfected cells
32Pi metabolic labelling, anti-myc immunoprecipitation, TLC of bound nucleotides [2]: The percentages (%) of each GTP-bound Rab member in the metabolically radiolabeled cells are shown
32Pi metabolic labelling, anti-myc immunoprecipitation, TLC of bound nucleotides [3]: RINL significantly increased GTP-Rab21, GTP-Rab22, and GTP-Rab31 formation
32Pi metabolic labelling, anti-myc immunoprecipitation, TLC of bound nucleotides [4]: RINL significantly increased GTP-Rab21, GTP-Rab22, and GTP-Rab31 formation
32Pi metabolic labelling, anti-myc immunoprecipitation, TLC of bound nucleotides [5]: RINL significantly increased GTP-Rab21, GTP-Rab22, and GTP-Rab31 formation

Nc1nc2c(ncn2[C@@H]2O[C@H](COP(=O)(O)OP(=O)(O)OP(O)(O)=S)[C@@H](O)[C@H]2O)c(=O)[nH]1 [GTPgammaS]
[35S]GTPgammaS filter binding time course [8]: RINL accelerated GTPgammaS binding to Rab22 and Rab31
[35S]GTPgammaS filter binding time course [9]: Rabex-5 strongly, as opposed to RINL, accelerated GTPgammaS binding to Rab21
[35S]GTPgammaS filter binding time course [10]: RINL accelerated GTPgammaS binding to Rab22 and Rab31

B1: FLAG-RIN3 (natural protein, UniProt Q8TB24 1-985, looked up)
chain: MIRHAGAPARGDPTGPVPVVGKGEEEEEEDGMRLCLPANPKNCLPHRRGISILEKLIKTCPVWLQLSLGQAEVARILHRVVAGMFLVRRDSSSKQLVLCVHFPSLNESSAEVLEYTIKEEKSILYLEGSALVFEDIFRLIAFYCVSRDLLPFTLRLPQAILEASSFTDLETIANLGLGFWDSSLNPPQERGKPAEPPRDRAPGFPLVSSLRPTAHDANCACEIELSVGNDRLWFVNPIFIEDCSSALPTDQPPLGNCPARPLPPTSDATSPTSRWAPRRPPPPPPVLPLQPCSPAQPPVLPALAPAPACPLPTSPPVPAPHVTPHAPGPPDHPNQPPMMTCERLPCPTAGLGPLREEAMKPGAASSPLQQVPAPPLPAKKNLPTAPPRRRVSERVSLEDQSPGMAAEGDQLSLPPQGTSDGPEDTPRESTEQGQDTEVKASDPHSMPELPRTAKQPPVPPPRKKRISRQLASTLPAPLENAELCTQAMALETPTPGPPREGQSPASQAGTQHPPAQATAHSQSSPEFKGSLASLSDSLGVSVMATDQDSYSTSSTEEELEQFSSPSVKKKPSMILGKARHRLSFASFSSMFHAFLSNNRKLYKKVVELAQDKGSYFGSLVQDYKVYSLEMMARQTSSTEMLQEIRTMMTQLKSYLLQSTELKALVDPALHSEEELEAIVESALYKCVLKPLKEAINSCLHQIHSKDGSLQQLKENQLVILATTTTDLGVTTSVPEVPMMEKILQKFTSMHKAYSPEKKISILLKTCKLIYDSMALGNPGKPYGADDFLPVLMYVLARSNLTEMLLNVEYMMELMDPALQLGEGSYYLTTTYGALEHIKSYDKITVTRQLSVEVQDSIHRWERRRTLNKARASRSSVQDFICVSYLEPEQQARTLASRADTQAQALCAQCAEKFAVERPQAHRLFVLVDGRCFQLADDALPHCIKGYLLRSEPKRDFHFVYRPLDGGGGGGGGSPPCLVVREPNFL
notes: this molecule is used for it; source: HEK293T, transfected, in lysate
stoichiometry N [11]: 4
